Results published in PMC7046201, “Unexpected differences in the pharmacokinetics of N-acetyl-DL-leucine enantiomers after oral dosing and their clinical relevance” (PLoS ONE, 2020).
Values joined by “and” are separate entries in the source; they are usually repeats but may differ in a detail not shown here. Identical values can stand only once.

Tests used:
[1] = design: method as in Neuzil et al. 2002; conditions: humans, oral absorption; ref Neuzil et al. 2002; cited from earlier work
[2] = Plasma pharmacokinetics of N-acetyl-leucine enantiomers after oral dosing of mice
Procedure: The animals were weighed on the day prior to dosing. The compound was administered to male BALB/c mice (n = 3 per time point) p.o. (100 mg/kg; 10 mL/kg) by oral gavage. Blood samples were collected into potassium EDTA tubes by venepuncture from the saphenous vein. Within 30 min following the sampling, blood was centrifuged for plasma separation (room temperature; 10 min; 2700 xg). The plasma samples were transferred into plastic tubes, frozen and stored at –20°C.
The plasma samples were prepared for analysis by mixing 50 μL of plasma with 100 μL of acetonitrile and mixed. In addition to plasma, skeletal muscle and brain tissue was also taken at less frequent time points (0.5, 2, 6, 24 and 48 h) and prepared for analysis by homogenization of 50 mg of tissue with 100 μL of acetonitrile. The samples were transferred to Waters 96-well plate and the sample was evaporated under nitrogen gas flow. The sample was reconstituted into 150 μl of 50% methanol:water and analysed by LC/MS. Standard plasma samples were prepared by spiking the injection solution with concentrations from 1 to 10 000 ng/mL by using one volume of spiking solution and nine volumes of injection solution. These samples were then prepared for analysis in the same way as the samples. […] QC samples from racemic-N-Acetyl-Leucine were prepared into concentrations of 40, 400 and 4000 ng/mL, corresponding to […] concentration of both D- and L-enantiomers, respectively. […] QC samples were then prepared for analysis in the same way as the samples.
Quantification by HPLC was performed using a Supelco Astec CHIROBIOTIC T chiral HPLC column (2.1 x 150 mm, 5 μm particle size) with a Waters Acquity UPLC + Thermo Q-Exactive hybrid Orbitrap MS, using ESI negative polarity, nitrogen auxiliary gas (450°C), capillary voltage was […] and controlled with the software Xcalibur 4.1. Samples were injected as a 4-μL volume and eluted with a gradient of buffer A (20 mM ammonium acetate) and buffer B (methanol) with a flow rate of 0.3 mL/min and column oven temperature of 30°C. The gradient was 80% A at 0 min; 20% A at 3.5 min and 80% A at 4.5 min Parallel Reaction Monitoring (PRM) and Full-MS-dd-MS2 were measured at the same time. […] Ions with aforementioned m/z was then collided and leucine fragment (m/z 130 or 134) was used in quantitation. In full-MS-dd-MS2 mode, every ion with intensity over a certain intensity was collided and fragments analyzed.
Plasma pharmacokinetic parameters of the N-acetyl-leucine enantiomers were calculated using Phoenix 64 (Build 6.4.0.768) WinNonlin (version 6.4) software, using non-compartmental method with sparse sampling. Nominal doses were used for all animals. The terminal phase half-life (T1/2), the time for 50% of the plasma concentration to decrease after some point of elimination, was calculated by least-squares regression analysis of the terminal linear part of the log concentration–time curve using the relationship 0.693/ke. The area under the plasma concentration–time curve (AUC), an estimation of plasma drug exposure over time, was determined with the linear trapezoidal rule for increasing values and log trapezoidal rule for decreasing values up to the last measurable concentration (AUC0-last). The first order elimination rate constant ke was calculated as the slope (minimum 3 points) from the terminal log plasma concentration time curve. The maximum concentration (Cmax) and the time taken to achieve the peak concentration (Tmax) after oral dose were obtained directly from the plasma concentration data without interpolation. The theoretical background and interpretation of the pharmacokinetic data was based on. Where appropriate, data are expressed as the mean ± standard error of the mean. Means were statistically analysed by either pre-planned t tests or a one-sample t test comparing the measured value with the expected value.

[3] = Brain concentration of enantiomers after oral dosing of mice; type: in vivo, male BALB/c mice
Procedure: (§1) In addition to plasma, skeletal muscle and brain tissue was also taken at less frequent time points (0.5, 2, 6, 24 and 48 h) and prepared for analysis by homogenization of 50 mg of tissue with 100 μL of acetonitrile. The samples were transferred to Waters 96-well plate and the sample was evaporated under nitrogen gas flow. The sample was reconstituted into 150 μl of 50% methanol:water and analysed by LC/MS. […] These samples were then prepared for analysis in the same way as the samples. […] QC samples from racemic-N-Acetyl-Leucine were prepared into concentrations of 40, 400 and 4000 ng/mL, corresponding to 20, 200 and 200 ng/mL concentration of both D- and L-enantiomers, respectively. […] QC samples were then prepared for analysis in the same way as the samples.
(§2) Quantification by HPLC was performed using a Supelco Astec CHIROBIOTIC T chiral HPLC column (2.1 x 150 mm, 5 μm particle size) with a Waters Acquity UPLC + Thermo Q-Exactive hybrid Orbitrap MS, using ESI negative polarity, nitrogen auxiliary gas (450°C), capillary voltage was 2000 and 350°C and controlled with the software Xcalibur 4.1. Samples were injected as a 4-μL volume and eluted with a gradient of buffer A (20 mM ammonium acetate) and buffer B (methanol) with a flow rate of 0.3 mL/min and column oven temperature of 30°C. The gradient was 80% A at 0 min; 20% A at 3.5 min and 80% A at 4.5 min Parallel Reaction Monitoring (PRM) and Full-MS-dd-MS2 were measured at the same time. […] Ions with aforementioned m/z was then collided and leucine fragment (m/z 130 or 134) was used in quantitation. In full-MS-dd-MS2 mode, every ion with intensity over a certain intensity was collided and fragments analyzed.

[4] = Skeletal muscle concentration of enantiomers after oral dosing of mice; type: in vivo, male BALB/c mice; conditions: individual mice
Procedure: as §1, §2

[5] = 0.15 h after p.o. N-Acetyl-L-Leucine 100 mg/kg, individual mice
[6] = 0.30 h after p.o. N-Acetyl-L-Leucine 100 mg/kg, individual mice
[7] = 1.00 h after p.o. N-Acetyl-L-Leucine 100 mg/kg, individual mice
[8] = 2.00 h after p.o. N-Acetyl-L-Leucine 100 mg/kg, individual mice
[9] = 4.00 h after p.o. N-Acetyl-L-Leucine 100 mg/kg, individual mice
[10] = 6.00 h after p.o. N-Acetyl-L-Leucine 100 mg/kg, individual mice
[11] = 8.00 h after p.o. N-Acetyl-L-Leucine 100 mg/kg, individual mice
[12] = 24.0 h after p.o. N-Acetyl-L-Leucine 100 mg/kg, individual mice
[13] = 32.0 h after p.o. N-Acetyl-L-Leucine 100 mg/kg, individual mice
[14] = 48.0 h after p.o. N-Acetyl-L-Leucine 100 mg/kg, individual mice
[15] = male, BALB/c, mouse, in vivo, po, 100 mg/kg
[16] = male, BALB/c, mouse, plasma, oral, 100 mg/kg, concentration in plasma, 0.30 h after p.o. N-Acetyl-L-Leucine 100 mg/kg, individual mice
[17] = male, BALB/c, mouse, plasma, oral, 100 mg/kg, concentration in plasma, 6.00 h after p.o. N-Acetyl-L-Leucine 100 mg/kg, individual mice
[18] = male, BALB/c, mouse, plasma, po, 100 mg/kg
[19] = plasma, after oral N-Acetyl-L-Leucine, nominal dose 100 mg/kg
[20] = plasma, after oral N-Acetyl-L-Leucine, nominal dose 100 mg/kg, 100 mg/kg
[21] = plasma, after oral N-Acetyl-L-Leucine, nominal dose 100 mg/kg, listed as D-enantiomer, 100 mg/kg
[22] = 0.30 h after p.o. N-Acetyl-DL-Leucine 100 mg/kg
[23] = 2.00 h after p.o. N-Acetyl-DL-Leucine 100 mg/kg
[24] = male, BALB/c, mouse, skeletal muscle, oral, 100 mg/kg, 0.30 h after p.o. N-Acetyl-DL-Leucine 100 mg/kg
[25] = plasma, after oral N-Acetyl-L-Leucine, nominal dose 100 mg/kg, listed as L-enantiomer, 100 mg/kg

Structure (SMILES): CC(=O)NC(CC(C)C)C(=O)O (racemic) [N-Acetyl-DL-Leucine, N-acetyl-DL-leucine]
- elimination half-life [1]: 60 to 108 min

Structure (SMILES): CC(=O)N[C@H](CC(C)C)C(=O)O [N-Acetyl-D-Leucine, N-acetyl-D-leucine]
- concentration in plasma [2, 5]: 391 ng/mL and 336 ng/mL
- concentration in plasma [2, 6]: 463 ng/mL and 388 ng/mL
- concentration in plasma [2, 7]: 116 ng/mL and 144 ng/mL and 248 ng/mL
- concentration in plasma [2, 8]: <LoQ and 45.6 ng/ml
- concentration in plasma [2, 9]: <LoQ
- concentration in plasma [2, 10]: <LoQ and 21.4 ng/ml
- concentration in plasma [2, 11]: 15.0 ng/ml and <LoQ
- concentration in plasma [2, 12]: <LoQ
- concentration in plasma [2, 13]: <LoQ
- concentration in plasma [2, 14]: <LoQ
- actual dose proportionality for AUC ([2]; male, BALB/c, mouse, in vivo): 101 fold
- actual dose proportionality for Cmax ([2]; male, BALB/c, mouse, in vivo): 197 fold
- Clast [2, 15]: 247 ng/mL
- Cmax [2, 15]: 86100 ng/mL
- Tmax [2, 15]: < 15 min
- half-life [2, 15]: 18.6 min
- k el [2, 15]: 0.000611 s⁻¹
- ke [2, 15]: 2.2
- concentration at 0.15 h ([2]; male, BALB/c, mouse, plasma, oral, 100 mg/kg, concentration in plasma, 0.15 h after p.o. N-Acetyl-L-Leucine 100 mg/kg, individual mice): 582 ng/mL
- concentration at 0.3 h [2, 16]: 392 ng/mL
- concentration at 2 h ([2]; male, BALB/c, mouse, plasma, oral, 100 mg/kg, concentration in plasma, 2.00 h after p.o. N-Acetyl-L-Leucine 100 mg/kg, individual mice): 33.4 ng/mL
- concentration at 6 h [2, 17]: 23.3 ng/mL
- concentration at 8 h ([2]; male, BALB/c, mouse, plasma, oral, 100 mg/kg, concentration in plasma, 8.00 h after p.o. N-Acetyl-L-Leucine 100 mg/kg, individual mice): 17.3 ng/mL
- Cmax [2, 18]: 436 ng/mL
- Tmax [2, 18]: < 15 min
- half-life [2, 18]: 15 min
- k el [2, 18]: 0.000472 s⁻¹
- AUC0-last [2, 19]: 573 h x ng/mL
- ke [2, 19]: 1.7
- Clast [2, 20]: 16.2 ng/mL
- Tlast [2, 20]: 8.00 h
- Clast [2, 21]: 16 ng/mL
- Tlast [2, 21]: 8 h
- concentration in brain ([3]; 0.30 h after p.o. N-Acetyl-DL-Leucine 100 mg/kg, individual mice): 357 ng/mL and 491 ng/mL and 888 ng/mL
- concentration in brain ([3]; 2.00 h after p.o. N-Acetyl-DL-Leucine 100 mg/kg, individual mice): <LoQ
- concentration at 2 h ([3]; male, BALB/c, mouse, brain, oral, 100 mg/kg, 2.00 h after p.o. N-Acetyl-DL-Leucine 100 mg/kg, individual mice): 117 ng/mL
- concentration in muscle [4, 22]: 4370 ng/mL and 3590 ng/mL
- concentration in muscle ([4]; 0.30 h after p.o. N-Acetyl-L-Leucine 100 mg/kg): 1110 ng/mL and 1520 ng/mL
- concentration in muscle [4, 23]: 335 ng/mL and 396 ng/mL and 829 ng/mL
- concentration in muscle ([4]; 2.00 h after p.o. N-Acetyl-L-Leucine 100 mg/kg): 119 ng/mL and 109 ng/mL
- concentration at 0.3 h [4, 24]: 2860 ng/mL
- concentration at 0.3 h ([4]; male, BALB/c, mouse, skeletal muscle, oral, 100 mg/kg, 0.30 h after p.o. N-Acetyl-L-Leucine 100 mg/kg): 1090 ng/mL
- concentration at 2 h ([4]; male, BALB/c, mouse, skeletal muscle, oral, 100 mg/kg, 2.00 h after p.o. N-Acetyl-L-Leucine 100 mg/kg): 112 ng/mL

Structure (SMILES): CC(=O)N[C@@H](CC(C)C)C(=O)O [N-Acetyl-L-Leucine, N-acetyl-L-leucine]
- concentration in plasma [2, 5]: 9090 ng/mL and 12400 ng/mL and 28900 ng/mL
- concentration in plasma [2, 6]: 7520 ng/mL and 10500 ng/mL
- concentration in plasma [2, 7]: 1590 ng/mL and 4280 ng/mL and 5300 ng/mL
- concentration in plasma [2, 8]: 73 ng/mL and 663 ng/mL and 502 ng/mL
- concentration in plasma [2, 9]: 131 ng/mL and 139 ng/mL and 304 ng/mL
- concentration in plasma [2, 10]: <LoQ and 114 ng/ml
- concentration in plasma [2, 11]: <LoQ
- concentration in plasma [2, 12]: <LoQ
- concentration in plasma [2, 13]: <LoQ
- concentration in plasma [2, 14]: <LoQ
- actual dose proportionality for AUC ([2]; male, BALB/c, mouse, in vivo): 4.6 fold
- actual dose proportionality for Cmax ([2]; male, BALB/c, mouse, in vivo): 4.9 fold
- Clast [2, 15]: 623 ng/mL
- Cmax [2, 15]: 3410 ng/mL
- Tmax [2, 15]: < 15 min
- half-life [2, 15]: 24 min
- k el [2, 15]: 0.000778 s⁻¹
- ke [2, 15]: 2.8
- concentration at 0.3 h [2, 16]: 7510 ng/mL
- concentration at 6 h [2, 17]: 222 ng/mL
- Cmax [2, 18]: 16800 ng/mL
- Tmax [2, 18]: < 15 min
- half-life [2, 18]: 17.4 min
- k el [2, 18]: 0.000667 s⁻¹
- Clast [2, 19]: 168 ng/mL
- ke [2, 19]: 2.4
- AUC0-last [2, 20]: 11 400 h x ng/mL
- Tlast [2, 20]: 6.00 h
- AUC0-last [2, 25]: 11400 h x ng/mL
- Tlast [2, 25]: 6 h
- detection in brain ([3]; following oral dosing with the racemate, Fig 6B): not detectable at any time point
- concentration in muscle [4, 22]: 605 ng/mL and 566 ng/mL
- concentration in muscle [4, 23]: 364 ng/mL and 154 ng/mL and 193 ng/mL
- concentration in muscle ([4]; 6.00 h after p.o. N-Acetyl-DL-Leucine 100 mg/kg): 159 ng/mL and 189 ng/mL
- concentration in muscle ([4]; 24.0 h after p.o. N-Acetyl-DL-Leucine 100 mg/kg): 195 ng/mL and 153 ng/mL
- concentration in muscle ([4]; 48.0 h after p.o. N-Acetyl-DL-Leucine 100 mg/kg): 102 ng/mL
- concentration at 0.3 h [4, 24]: 469 ng/mL
- concentration at 6 h ([4]; male, BALB/c, mouse, skeletal muscle, oral, 100 mg/kg, 6.00 h after p.o. N-Acetyl-DL-Leucine 100 mg/kg): 108 ng/mL
- concentration at 24 h ([4]; male, BALB/c, mouse, skeletal muscle, oral, 100 mg/kg, 24.0 h after p.o. N-Acetyl-DL-Leucine 100 mg/kg): 136 ng/mL
- concentration at 48 h ([4]; male, BALB/c, mouse, skeletal muscle, oral, 100 mg/kg, 48.0 h after p.o. N-Acetyl-DL-Leucine 100 mg/kg): 124 ng/mL
